We go through nine compounds from ChEMBL document CHEMBL1201862, “PubChem BioAssay data set” (2004).

Test systems include CCRF-CEM; MOLT-4; NCI-H23; SF-539; HL-60; SNB-75; NCI-H460; OVCAR-4; SN12C; A498; TK-10; OVCAR-5; 786-0; Malme-3M; NCI-H522; HCC 2998.
What all share (assay): NCI tumour cell line growth inhibition, 48 h

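Each compound was tested at five concentrations against cells in 96-well plates for 48 hours. GI50 marks 50% less growth.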 Calls of active or inactive are those of the source. Rule as the data show it: active = GI50 up to about 1.1 µM and inactive = higher. Bounds are passed on as bounds.

In the case of `Cc1cc(N)c2cc(NC(=O)CCCCCCCCC(=O)Nc3ccc4nc(C)cc(N)c4c3)ccc2n1`, the GI50 in the assay with CCRF-CEM is 10.7 µM (inactive); in the assay with MOLT-4 it was 5.07 µM (inactive); in the assay with NCI-H23, 15.2 µM (inactive); in the assay with SF-539, 16.8 µM (inactive); with HL-60, 1.54 µM (inactive); in the assay with SNB-75, 32.9 µM (inactive). The GI50 in the assay with NCI-H460 was 2.47 µM (inactive); in the assay on OVCAR-4, > 100 µM (inactive); in the assay with SN12C it was 3.87 µM (inactive); with A498, 29.5 µM (inactive); with TK-10, 45.8 µM (inactive); in the assay on OVCAR-5, > 56 µM (inactive). The GI50 in the assay with 786-0 is 28.2 µM (inactive); in the assay on Malme-3M it was 25.4 µM (inactive); in the assay on NCI-H522, 1.98 µM (inactive); in the assay on HCC 2998, 10.3 µM (inactive).

On to `Cc1nc2c(N)ncnc2o1`, for which the GI50 in the assay on CCRF-CEM, in the assay with MOLT-4, in the assay on NCI-H23, with SF-539, with HL-60 and in the assay on SNB-75 was > 100 µM (inactive) in each case. Moreover, the GI50 in the assay on NCI-H460, in the assay on OVCAR-4, in the assay on SN12C, in the assay with A498, in the assay with TK-10 and in the assay with OVCAR-5 was > 100 µM (inactive) throughout. The GI50 in the assay with 786-0, in the assay with Malme-3M, in the assay with NCI-H522 and in the assay with HCC 2998 was > 100 µM (inactive) throughout.

Turning to `COc1cc(O)c2c(c1)C(=O)C=C(Cl)C2=O`, the GI50 in the assay with CCRF-CEM is > 100 µM (inactive); with MOLT-4, > 100 µM (inactive); in the assay on NCI-H23, > 100 µM (inactive); with SF-539, 68.4 µM (inactive); in the assay with HL-60 it was > 100 µM (inactive); in the assay on SNB-75, > 100 µM (inactive). In addition, the GI50 with OVCAR-4, with A498, with TK-10, with OVCAR-5, in the assay on 786-0 and in the assay with Malme-3M was > 100 µM (inactive) in each case. Further, the GI50 with NCI-H522 was > 100 µM (inactive); with HCC 2998, 83.6 µM (inactive).

In the case of `C=CCN1CCC23c4c5ccc(O)c4OC2C(=NN=C2CCC4(O)C6Cc7ccc(O)c8c7C4(CCN6CC=C)C2O8)CCC3(O)C1C5` (stereo not drawn), the GI50 in the assay with CCRF-CEM is 34.8 µM (inactive); in the assay on MOLT-4 it was 38.3 µM (inactive); in the assay on NCI-H23, > 100 µM (inactive); in the assay with SF-539 it was 18.6 µM (inactive); in the assay with HL-60 it was > 10 µM (inactive); in the assay with SNB-75, 17.1 µM (inactive). Besides, the GI50 in the assay with NCI-H460 was 20.5 µM (inactive); in the assay on OVCAR-4 it was 22 µM (inactive); in the assay with SN12C it was 23 µM (inactive); in the assay with A498 it was 20.2 µM (inactive); in the assay on TK-10, 21.6 µM (inactive); with OVCAR-5, 66.5 µM (inactive). Moreover, the GI50 in the assay with 786-0 was 18.3 µM (inactive); in the assay with Malme-3M, 19.1 µM (inactive); in the assay with NCI-H522, 31 µM (inactive); in the assay on HCC 2998, 21.3 µM (inactive).

As for `CC(=O)/C=C/c1ccc(C2CC(C)=Nc3c(ccc4c3C(=O)c3ccccc3C4=O)N2)cc1` (stereo not drawn), the GI50 in the assay on CCRF-CEM was 1.28 µM (inactive); in the assay with MOLT-4 it was > 100 µM (inactive); in the assay on NCI-H23, > 67.3 µM (inactive); with SF-539, 63.8 µM (inactive); in the assay on HL-60 it was 0.944 µM (active); in the assay on SNB-75, 14.8 µM (inactive). Moreover, the GI50 with NCI-H460 is 30 µM (inactive); in the assay with OVCAR-4, > 85.9 µM (inactive); in the assay on SN12C, > 81.5 µM (inactive); in the assay on A498, 33.3 µM (inactive); in the assay on TK-10, 8.89 µM (inactive); in the assay with OVCAR-5, > 86.5 µM (inactive). Also, the GI50 in the assay on 786-0 was 54.6 µM (inactive); in the assay with Malme-3M, 89.1 µM (inactive); with NCI-H522, > 20 µM (inactive); in the assay on HCC 2998, > 100 µM (inactive).

As for `CCC(C)CCOC(=O)c1ccc(/N=C\c2ccc(/C=N/c3ccc(C(=O)OCCC(C)CC)cc3)cc2)cc1` (stereo not drawn), the GI50 with CCRF-CEM, in the assay on MOLT-4, with NCI-H23, with SF-539, in the assay with HL-60 and with SNB-75 was > 100 µM (inactive) each time. In addition, the GI50 with NCI-H460, with OVCAR-4, with SN12C, with A498, in the assay on OVCAR-5 and in the assay on 786-0 was > 100 µM (inactive) each time. The GI50 with Malme-3M, in the assay on NCI-H522 and with HCC 2998 was > 100 µM (inactive) each time.

Regarding `CCOC(=O)C1N(S(=O)(=O)c2ccc(C)cc2)CCC12c1ccccc1N(C(C)=O)C2c1ccc(OC)c(OC)c1` (stereo not drawn), the GI50 in the assay on CCRF-CEM was > 100 µM (inactive); in the assay on NCI-H23, > 100 µM (inactive); with SF-539, > 100 µM (inactive); in the assay on HL-60, 48.1 µM (inactive); with SNB-75, 74 µM (inactive); with NCI-H460, > 100 µM (inactive). In addition, the GI50 in the assay with OVCAR-4 is 71.1 µM (inactive); in the assay with SN12C, > 100 µM (inactive); with A498 it was > 100 µM (inactive); in the assay with TK-10, > 100 µM (inactive); with OVCAR-5, > 100 µM (inactive); in the assay on 786-0, > 100 µM (inactive). Besides, the GI50 in the assay on Malme-3M, with NCI-H522 and with HCC 2998 was > 100 µM (inactive) throughout.

For the compound `O=C(CCC(=O)C(C(=O)c1ccccc1)c1ccccc1)Nc1cccc(C(F)(F)F)c1` (stereo not drawn), the GI50 in the assay on CCRF-CEM, in the assay on MOLT-4, in the assay on NCI-H23, in the assay with SF-539, in the assay on HL-60 and with NCI-H460 was > 100 µM (inactive) in each case. In addition, the GI50 in the assay with OVCAR-4, in the assay with SN12C, with A498, in the assay with TK-10, with OVCAR-5 and with 786-0 was > 100 µM (inactive) throughout. The GI50 in the assay on Malme-3M, with NCI-H522 and in the assay on HCC 2998 was > 100 µM (inactive) in each case.

Regarding `COC(=O)C(Cc1c[nH]c2ccccc12)NC(=O)C(Cc1c[nH]c2ccccc12)NC(=O)OCc1ccccc1` (stereo not drawn), the GI50 is 21.7 µM (inactive) with CCRF-CEM; 17.3 µM (inactive) with NCI-H23; 16.7 µM (inactive) in the assay on SF-539; 20.8 µM (inactive) with HL-60; 21.6 µM (inactive) in the assay with SNB-75; 18.1 µM (inactive) in the assay with NCI-H460. Further, the GI50 in the assay with OVCAR-4 was 16.4 µM (inactive); in the assay on SN12C it was 17.1 µM (inactive); in the assay on A498, 72.8 µM (inactive); in the assay with TK-10, 22.8 µM (inactive); in the assay on OVCAR-5, 17.6 µM (inactive); in the assay on 786-0, 16.2 µM (inactive). Moreover, the GI50 in the assay on Malme-3M is 39.6 µM (inactive); with NCI-H522, 16.3 µM (inactive); in the assay with HCC 2998, 17.8 µM (inactive).
